16 compounds from US11109593B2, “Isoxazolin-5-one derivative and herbicide containing same as active ingredient” (HOKKO CHEMICAL INDUSTRY CO., LTD., priority 2017, dated 2021) can be followed below.

SMILES strings stand for the structures.

What all share (format): in vivo
The subject of assay [1] is Echinochloa crus-galli. In words: Test Example 1: herbicidal effect test by treatment of rice paddy soil (immediately after seeding). The following applies: 120 g/10a active ingredient, dry weight vs untreated area, 14 days after treatment. In outline: (§1)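 Puddled, fertilized (N:P:K=17:17:17) paddy soil in Wagner pots; seeds sown 0–1 cm deep, flooded to about 3 cm. Emulsifiable formulations diluted in water and dropped into the water immediately after seeding at 120 g active ingredient per 10 ares; greenhouse. Herbicidal rate from dry weight vs untreated at 14 days.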

Assay [2] concerns Scirpus juncoides. The description is as above. The conditions noted are these: 120 g/10a active ingredient, dry weight vs untreated area, 14 days after treatment. The method in brief: as §1
Assay [3] deals with broad leaf weeds (Lindernia pyxidaria and Monochoria vaginalis). Described as above. The following applies: 120 g/10a active ingredient, dry weight vs untreated area, 14 days after treatment. The method in brief:
as §1

Assay [4] has as its system Echinochloa crus-galli. In words: Test Example 2: herbicidal effect test by treatment during growing period in paddy rice cultivation (seven days after seeding). The conditions noted are these: 120 g/10a active ingredient, assessed 14 days after treatment, dry weight vs untreated area. In outline: (§2)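 Emulsion formulations, diluted in water, applied dropwise to flooded pots (about 3 cm water) 7 days post-seeding at 120 g a.i./10 ares. Weeds sown 30 seeds each, 0–1 cm deep in puddled paddy soil; greenhouse. Readout: % reduction in plant dry weight vs untreated, day 14, duplicates.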

Assay [5] concerns Scirpus juncoides. Described as above. The conditions noted are these: 120 g/10a active ingredient, assessed 14 days after treatment, dry weight vs untreated area. The method in brief: as §2
Assay [6] has as its system broad leaf weeds (Lindernia pyxidaria and Monochoria vaginalis). The description is as above. The following applies: 120 g/10a active ingredient, assessed 14 days after treatment, dry weight vs untreated area. The method in brief: as §2

As for `Cc1c(Cc2ccccc2N(C(=O)OCC(C)C)S(=O)(=O)C(F)(F)F)c(=O)on1CC(C)C` [Compound 1-671], the “Herbicidal rate (%) Echinochloa crus-galli” value in the assay on Echinochloa crus-galli [1] and in the assay with Echinochloa crus-galli [4] was 90% in each case. For the same compound, the “Herbicidal rate (%) Scirpus juncoides” value in the assay with Scirpus juncoides [2] and with Scirpus juncoides [5] was 90% in each case. For the same compound, the “Herbicidal rate (%) Lindernia pyxidaria” value in assay [3] is given as 90%; in assay [6], 60%. The “Herbicidal rate (%) Monochoria vaginalis” value in assay [3] and in assay [6] was 90% in each case.

`Cc1c(Cc2ccccc2N(C(=O)OCC(C)C)S(=O)(=O)C(F)(F)F)c(=O)on1Cc1ccccc1` [Compound 1-677]: the entries for the “Herbicidal rate (%) Echinochloa crus-galli” value in the assay on Echinochloa crus-galli [1] and with Echinochloa crus-galli [4] were 90% and 70%, respectively. The “Herbicidal rate (%) Scirpus juncoides” value in the assay on Scirpus juncoides [2] and in the assay with Scirpus juncoides [5] was 90% each time. Moreover, the “Herbicidal rate (%) Lindernia pyxidaria” value in assay [3] was determined as 100%; in assay [6], 80%. In addition, the “Herbicidal rate (%) Monochoria vaginalis” value in assay [3] is 100%; in assay [6], 80%.

For `CCN(CC)C(=O)n1oc(=O)c(Cc2ccccc2N(C(=O)OCC(C)C)S(=O)(=O)C(F)(F)F)c1C` [Compound 1-679], the figures for the “Herbicidal rate (%) Echinochloa crus-galli” value with Echinochloa crus-galli [1] and in the assay on Echinochloa crus-galli [4] were 60% and 50%, respectively. Moreover, the figures for the “Herbicidal rate (%) Scirpus juncoides” value in the assay with Scirpus juncoides [2] and in the assay with Scirpus juncoides [5] were 50% and 40%, respectively. Further, the “Herbicidal rate (%) Lindernia pyxidaria” value amounted to 50% in assay [3] and 40% in assay [6]. Also, the “Herbicidal rate (%) Monochoria vaginalis” value in assay [3] is listed as 50%; in assay [6], 40%.

Regarding `CCCCCCCCn1oc(=O)c(Cc2ccccc2N(S(=O)(=O)C(F)(F)F)S(=O)(=O)C(F)(F)F)c1C` [Compound 1-981], the figures for the “Herbicidal rate (%) Echinochloa crus-galli” value with Echinochloa crus-galli [1] and with Echinochloa crus-galli [4] were 80% and 90%, respectively. Moreover, the “Herbicidal rate (%) Scirpus juncoides” value in the assay on Scirpus juncoides [2] was 70%; with Scirpus juncoides [5], 40%. The “Herbicidal rate (%) Lindernia pyxidaria” value in assay [3] is 60%; in assay [6], 50%. For the same compound, the “Herbicidal rate (%) Monochoria vaginalis” value in assay [3] came out at 50%; in assay [6] it was 40%.

For the compound `C#CCn1oc(=O)c(Cc2ccccc2N(S(=O)(=O)C(F)(F)F)S(=O)(=O)C(F)(F)F)c1C` [Compound 1-988], the “Herbicidal rate (%) Echinochloa crus-galli” value in the assay with Echinochloa crus-galli [1] and in the assay with Echinochloa crus-galli [4] was 90% each time. For the same compound, the “Herbicidal rate (%) Scirpus juncoides” value with Scirpus juncoides [2] and in the assay on Scirpus juncoides [5] was 90% in each case. Further, the “Herbicidal rate (%) Lindernia pyxidaria” value in assay [3] and in assay [6] was 100% throughout. Also, the “Herbicidal rate (%) Monochoria vaginalis” value in assay [3] and in assay [6] was 100% throughout.

Turning to `Cc1c(Cc2ccccc2N(S(=O)(=O)C(F)(F)F)S(=O)(=O)C(F)(F)F)c(=O)on1CC1CC1` [Compound 1-991], the “Herbicidal rate (%) Echinochloa crus-galli” value in the assay on Echinochloa crus-galli [1] and in the assay with Echinochloa crus-galli [4] was 90% throughout. In addition, the “Herbicidal rate (%) Scirpus juncoides” value in the assay on Scirpus juncoides [2] and with Scirpus juncoides [5] was 90% each time. For the same compound, the “Herbicidal rate (%) Lindernia pyxidaria” value in assay [3] was 100%; in assay [6], 70%. The entries for the “Herbicidal rate (%) Monochoria vaginalis” value in assay [3] and in assay [6] were 100% and 80%, respectively.

With `Cc1c(Cc2ccccc2N(S(=O)(=O)C(F)(F)F)S(=O)(=O)C(F)(F)F)c(=O)on1CC1CCCCC1` [Compound 1-994], the “Herbicidal rate (%) Echinochloa crus-galli” value in the assay with Echinochloa crus-galli [1] and with Echinochloa crus-galli [4] was 90% in each case. For the same compound, the “Herbicidal rate (%) Scirpus juncoides” value in the assay with Scirpus juncoides [2] was determined as 90%; with Scirpus juncoides [5] it was 80%. Besides, the “Herbicidal rate (%) Lindernia pyxidaria” value in assay [3] came out at 100%; in assay [6] it was 60%. The “Herbicidal rate (%) Monochoria vaginalis” value is 60% in assay [3] and 80% in assay [6].

For the compound `COCCn1oc(=O)c(Cc2ccccc2N(S(=O)(=O)C(F)(F)F)S(=O)(=O)C(F)(F)F)c1C` [Compound 1-996], the “Herbicidal rate (%) Echinochloa crus-galli” value came to 90% with Echinochloa crus-galli [1] and 70% in the assay on Echinochloa crus-galli [4]. For the same compound, the “Herbicidal rate (%) Scirpus juncoides” value with Scirpus juncoides [2] and in the assay on Scirpus juncoides [5] was 90% each time. In addition, the “Herbicidal rate (%) Lindernia pyxidaria” value is on record as 80% in assay [3] and 70% in assay [6]. Further, the “Herbicidal rate (%) Monochoria vaginalis” value in assay [3] and in assay [6] was 80% throughout.

For the compound `Cc1c(Cc2ccccc2N(S(=O)(=O)C(F)(F)F)S(=O)(=O)C(F)(F)F)c(=O)on1Cc1ccccc1F` [Compound 1-1012], the “Herbicidal rate (%) Echinochloa crus-galli” value with Echinochloa crus-galli [1] was found to be 90%; in the assay with Echinochloa crus-galli [4], 60%. Moreover, the “Herbicidal rate (%) Scirpus juncoides” value with Scirpus juncoides [2] is on record as 100%; in the assay with Scirpus juncoides [5] it was 90%. Further, the “Herbicidal rate (%) Lindernia pyxidaria” value in assay [3] amounted to 100%; in assay [6], 80%. Further, the “Herbicidal rate (%) Monochoria vaginalis” value came to 100% in assay [3] and 80% in assay [6].

`Cc1c(Cc2ccccc2N(S(=O)(=O)C(F)(F)F)S(=O)(=O)C(F)(F)F)c(=O)on1Cc1ccc(Cl)cc1` [Compound 1-1015]: the “Herbicidal rate (%) Echinochloa crus-galli” value amounted to 90% in the assay with Echinochloa crus-galli [1] and 70% in the assay with Echinochloa crus-galli [4]. The “Herbicidal rate (%) Scirpus juncoides” value with Scirpus juncoides [2] and in the assay with Scirpus juncoides [5] was 90% each time. In addition, the “Herbicidal rate (%) Lindernia pyxidaria” value is listed as 100% in assay [3] and 90% in assay [6]. For the same compound, the “Herbicidal rate (%) Monochoria vaginalis” value in assay [3] and in assay [6] was 90% in each case.

Turning to `Cc1c(Cc2ccccc2N(S(=O)(=O)C(F)(F)F)S(=O)(=O)C(F)(F)F)c(=O)on1Cc1ccc(Br)cc1` [Compound 1-1016], the “Herbicidal rate (%) Echinochloa crus-galli” value came to 90% in the assay on Echinochloa crus-galli [1] and 40% with Echinochloa crus-galli [4]. Besides, the “Herbicidal rate (%) Scirpus juncoides” value in the assay on Scirpus juncoides [2] amounted to 80%; with Scirpus juncoides [5], 60%. Besides, the “Herbicidal rate (%) Lindernia pyxidaria” value in assay [3] worked out at 90%; in assay [6], 70%. In addition, the entries for the “Herbicidal rate (%) Monochoria vaginalis” value in assay [3] and in assay [6] were 60% and 80%, respectively.

As for `Cc1c(Cc2ccccc2N(S(=O)(=O)C(F)(F)F)S(=O)(=O)C(F)(F)F)c(=O)on1Cc1ccc(C#N)cc1` [Compound 1-1017], the “Herbicidal rate (%) Echinochloa crus-galli” value in the assay with Echinochloa crus-galli [1] came out at 40%; in the assay on Echinochloa crus-galli [4], 0%. The “Herbicidal rate (%) Scirpus juncoides” value came out at 90% in the assay on Scirpus juncoides [2] and 80% with Scirpus juncoides [5]. For the same compound, the “Herbicidal rate (%) Lindernia pyxidaria” value in assay [3] worked out at 60%; in assay [6], 80%. Besides, the “Herbicidal rate (%) Monochoria vaginalis” value in assay [3] is 90%; in assay [6], 80%.

With `Cc1ccc(Cn2oc(=O)c(Cc3ccccc3N(S(=O)(=O)C(F)(F)F)S(=O)(=O)C(F)(F)F)c2C)cc1` [Compound 1-1018], the “Herbicidal rate (%) Echinochloa crus-galli” value came to 90% in the assay with Echinochloa crus-galli [1] and 40% in the assay with Echinochloa crus-galli [4]. For the same compound, the “Herbicidal rate (%) Scirpus juncoides” value was found to be 90% in the assay on Scirpus juncoides [2] and 80% in the assay with Scirpus juncoides [5]. Moreover, the figures for the “Herbicidal rate (%) Lindernia pyxidaria” value in assay [3] and in assay [6] were 100% and 80%, respectively. The “Herbicidal rate (%) Monochoria vaginalis” value in assay [3] came to 90%; in assay [6] it was 80%.

For the compound `Cc1c(Cc2ccccc2N(S(=O)(=O)C(F)(F)F)S(=O)(=O)C(F)(F)F)c(=O)on1Cc1ccc(C(C)(C)C)cc1` [Compound 1-1019], the “Herbicidal rate (%) Echinochloa crus-galli” value in the assay with Echinochloa crus-galli [1] was found to be 40%; in the assay on Echinochloa crus-galli [4], 0%. Moreover, the “Herbicidal rate (%) Scirpus juncoides” value in the assay on Scirpus juncoides [2] is 40%; in the assay with Scirpus juncoides [5] it was 0%. Moreover, the figures for the “Herbicidal rate (%) Lindernia pyxidaria” value in assay [3] and in assay [6] were 60% and 40%, respectively. Further, the entries for the “Herbicidal rate (%) Monochoria vaginalis” value in assay [3] and in assay [6] were 60% and 40%, respectively.

As for `Cc1c(Cc2ccccc2N(S(=O)(=O)C(F)(F)F)S(=O)(=O)C(F)(F)F)c(=O)on1Cc1cccc(C(F)(F)F)c1` [Compound 1-1020], the “Herbicidal rate (%) Echinochloa crus-galli” value in the assay with Echinochloa crus-galli [1] worked out at 50%; in the assay with Echinochloa crus-galli [4], 60%. Also, the “Herbicidal rate (%) Scirpus juncoides” value in the assay with Scirpus juncoides [2] and in the assay on Scirpus juncoides [5] was 40% throughout. The “Herbicidal rate (%) Lindernia pyxidaria” value came to 80% in assay [3] and 40% in assay [6]. For the same compound, the “Herbicidal rate (%) Monochoria vaginalis” value in assay [3] and in assay [6] was 40% in each case.

Regarding `COc1ccc(Cn2oc(=O)c(Cc3ccccc3N(S(=O)(=O)C(F)(F)F)S(=O)(=O)C(F)(F)F)c2C)cc1` [Compound 1-1022], the “Herbicidal rate (%) Echinochloa crus-galli” value in the assay with Echinochloa crus-galli [1] came out at 90%; with Echinochloa crus-galli [4] it was 70%. Further, the “Herbicidal rate (%) Scirpus juncoides” value in the assay with Scirpus juncoides [2] and with Scirpus juncoides [5] was 90% throughout. Also, the “Herbicidal rate (%) Lindernia pyxidaria” value in assay [3] and in assay [6] was 100% throughout. Further, the “Herbicidal rate (%) Monochoria vaginalis” value in assay [3] and in assay [6] was 100% throughout.
